In paper PMC5128878 (Scientific Reports, 2016):
Several values for one entry are separate records, joined by “and”; a condition that tells them apart may be missing. Equal values may be shown once. Read-outs that look alike come from different tables or passages of the source.

Legend:
α4β2 nAChR = molecular target: T1, α4β2 nAChR (Rattus norvegicus, UniProt P09483+P12390); assay: cell-based; assay type: cell-based; conditions: for IC50: IC50 (95% CI), ACh 10 μM
T1 construct: expressed in transfected cells; host or cells: Xenopus laevis oocytes injected with cRNA
Description: (§1) cDNA clones of rat neuronal nAChR subunits (α3, α4, β2 and β4) and mouse muscle subunits (α1, β1, γ and δ) were from the Salk Institute for Biological Studies (Professor Stephen Heinemann). The human α7 and RIC-3 cDNAs were provided by Professor David Sattelle (University College London).
(§2) Oocytes isolated from mature female Xenopus laevis were supplied by the European Xenopus Resource Centre, University of Portsmouth, UK. Oocytes were treated with collagenase (0.5 mg/ml, Sigma type 1 A) in Ca^2+-free solution (96 mM NaCl, 2 mM KCl, 1 mM MgCl2, 5 mM HEPES, 2.5 mM Na-pyruvate, 100 U/mL penicillin, 0.1 mg/mL streptomycin, pH 7.5) with shaking at 19 °C to defolliculate and remove the connective tissue surrounding the cells. After separation, oocytes were washed 7 times with modified Barth’s solution (96 mM NaCl, 2 mM KCl, 1.8 mM CaCl2, 1 mM MgCl2, 5 mM HEPES, 2.5 mM Na-pyruvate, 0.5 mM theophylline, 50 μg/mL gentamicin, pH 7.5) and kept at 19 °C in the same solution.
(§3) Healthy oocytes were injected with cRNA using a Nano-liter Injector (World Precision Instruments Inc, USA). Mixtures of nAChR subunit cRNAs were injected as follows; for heteromeric rat neuronal receptors a 1:1 ratio of α:β at 200 ng/μL; for mouse embryonic muscle a 1:1:1:1 ratio of α:β:γ:δ at 25 ng/μL; human α7 at 100 ng/μL was mixed with RIC-3 at 30 ng/μL. Each oocyte was injected with 50 nL of RNA solution. Injected oocytes were saved in Barth’s solution at 19 °C for two to three days for expression of the target protein. During this time oocytes were regularly checked to remove unhealthy ones.
(§4) Electrophysiological recordings were taken from nAChR-expressing oocytes by two-electrode voltage clamp using a Geneclamp 500 voltage clamp amplifier (Axon instruments, USA). An oocyte was placed in the perfusion chamber using a plastic Pasteur pipette and the bath was perfused (~5 mL/min) with fresh Frog Ringer solution (96 mM NaCl, 2 mM KCl, 1.8 mM CaCl2 and 5 mM HEPES, pH 7.5). Microelectrodes were pulled from borosilicate glass capillaries (Harvard GC150TF-10) using a programmable micropipette puller (Sutter P97, USA), and they had resistances between 0.5 and 2.5 MΩ when filled with 3 M KCl. The oocyte was voltage-clamped at holding potentials (VH) between −60 and −100 mV. […] Currents were recorded to a PC via a digidata 1200 analog-to-digital converter (Axon Instuments, USA) using WinEDR v3.2.6 Software (Dr John Dempster, University of Strathclyde, UK).
(§5) Graphpad Prism 6 was used for data analysis, graph plotting and curve fitting. All plotted points are the mean ± SEM obtained from 4–20 oocytes.

α4β2(V253F) nAChR = molecular target: T2, α4β2(V253F) nAChR (Rattus norvegicus, UniProt P09483+P12390, V277F); assay: Two-electrode voltage clamp of ACh currents, α4β2(V253F) nAChRs expressed in Xenopus oocytes; assay type: cell-based; conditions: for IC50: α4β2(V253F), ACh 10 μM
T2 construct: expressed in transfected cells; host or cells: Xenopus laevis oocytes injected with cRNA
Description: as §1, §2, §3, §4, §5

α4β4 nAChR = molecular target: T3, α4β4 nAChR (Rattus norvegicus, UniProt P09483+P12392); assay: cell-based; assay type: cell-based; conditions: for IC50: IC50 (95% CI), ACh 10 μM
T3 construct: expressed in transfected cells; host or cells: Xenopus laevis oocytes injected with cRNA
Description: as §2, §3, §4, §5

α3β4 nAChR = molecular target: T4, α3β4 nAChR (Rattus norvegicus, UniProt P04757+P12392); assay: cell-based
T4 construct: expressed in transfected cells; host or cells: Xenopus laevis oocytes injected with cRNA
Description: as §2, §3, §4, §5

α3β4(F255V) nAChR = molecular target: T5, α3β4(F255V) nAChR (Rattus norvegicus, UniProt P04757+P12392, F275V); assay: Two-electrode voltage clamp of ACh currents, α3β4(F255V) nAChRs expressed in Xenopus oocytes; assay type: cell-based; conditions: for IC50: α3β4(F255V), ACh 100 μM
T5 construct: expressed in transfected cells; host or cells: Xenopus laevis oocytes injected with cRNA
Description: as §1, §2, §3, §4, §5

α7 nAChR = molecular target: T6, α7 nAChR (Homo sapiens, UniProt P36544); assay: Two-electrode voltage clamp of ACh currents, α7 nAChRs (with RIC-3) expressed in Xenopus oocytes; assay type: cell-based; conditions: for IC50: IC50 (95% CI), ACh 100 μM
T6 construct: expressed in transfected cells; host or cells: Xenopus laevis oocytes injected with cRNA
Description: as §2, §3, §4, §5

α1β1γδ nAChR = molecular target: T7, α1β1γδ nAChR (Mus musculus, UniProt P02716+P04756+P04760+P09690); assay: cell-based; assay type: cell-based; conditions: α1β1γδ; for IC50: IC50 (95% CI), ACh 10 μM
T7 construct: expressed in transfected cells; host or cells: Xenopus laevis oocytes injected with cRNA
Description: as §2, §3, §4, §5

[1] = tested on: human muscle-type nAChRs in TE671 cells; assay: Muscle-type nAChRs in TE671 cells (previous study); assay type: cell-based; conditions: previous study compared with present oocyte data ref 8
nAChRs = assay: Two-electrode voltage clamp of Xenopus oocytes expressing nAChRs, statements across tested subtypes; assay type: cell-based
Description: as §1, §2, §3, §4, §5

α3β2 nAChR = α3β2 nAChR (Rattus norvegicus, UniProt P04757+P12390); assay: Two-electrode voltage clamp of ACh currents, α3β2 nAChRs expressed in Xenopus oocytes; conditions: for IC50: IC50 (95% CI), ACh 30 μM
Description: as §2, §3, §4, §5

[2] = VH −60 mV, late current (1 min), read-out: IC50 (95% CI), Late
[3] = VH −60 mV, peak current, read-out: IC50 (95% CI), Peak
[4] = VH −80 mV, late current (1 min), read-out: IC50 (95% CI), Late
[5] = VH −80 mV, peak current, read-out: IC50 (95% CI), Peak
[6] = VH −100 mV, late current (1 min), read-out: IC50 (95% CI), Late
[7] = VH −100 mV, peak current, read-out: IC50 (95% CI), Peak

T6 sequence (P36544 23-502): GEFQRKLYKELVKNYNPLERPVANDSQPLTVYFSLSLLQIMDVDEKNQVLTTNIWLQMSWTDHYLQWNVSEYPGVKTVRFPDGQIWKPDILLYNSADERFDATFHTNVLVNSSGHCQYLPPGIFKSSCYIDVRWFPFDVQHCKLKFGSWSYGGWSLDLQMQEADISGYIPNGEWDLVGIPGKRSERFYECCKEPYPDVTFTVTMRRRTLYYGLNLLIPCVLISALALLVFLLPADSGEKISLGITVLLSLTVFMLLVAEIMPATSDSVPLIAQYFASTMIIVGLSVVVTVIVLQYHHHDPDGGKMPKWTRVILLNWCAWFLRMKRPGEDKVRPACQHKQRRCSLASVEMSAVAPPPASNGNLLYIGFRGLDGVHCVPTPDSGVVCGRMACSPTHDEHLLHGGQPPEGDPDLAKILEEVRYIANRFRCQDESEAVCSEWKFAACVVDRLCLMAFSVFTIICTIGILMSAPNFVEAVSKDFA
T1 sequence (P09483 31-630): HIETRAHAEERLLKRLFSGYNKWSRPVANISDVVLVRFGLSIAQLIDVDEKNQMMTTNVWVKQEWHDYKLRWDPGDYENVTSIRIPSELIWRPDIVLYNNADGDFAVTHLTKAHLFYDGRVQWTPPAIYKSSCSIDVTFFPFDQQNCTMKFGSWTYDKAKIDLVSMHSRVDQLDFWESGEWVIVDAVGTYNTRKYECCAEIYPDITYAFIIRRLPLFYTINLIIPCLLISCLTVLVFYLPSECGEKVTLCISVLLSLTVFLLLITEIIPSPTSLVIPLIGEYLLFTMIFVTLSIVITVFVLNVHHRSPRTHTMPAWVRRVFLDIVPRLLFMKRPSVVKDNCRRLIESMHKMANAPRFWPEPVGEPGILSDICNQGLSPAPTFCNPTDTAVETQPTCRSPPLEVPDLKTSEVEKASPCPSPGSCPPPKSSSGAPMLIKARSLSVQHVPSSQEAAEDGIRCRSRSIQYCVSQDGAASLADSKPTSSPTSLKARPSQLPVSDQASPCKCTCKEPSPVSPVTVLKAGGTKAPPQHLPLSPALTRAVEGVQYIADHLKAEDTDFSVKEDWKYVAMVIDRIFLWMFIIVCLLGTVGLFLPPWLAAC
T1 sequence (P12390 25-500): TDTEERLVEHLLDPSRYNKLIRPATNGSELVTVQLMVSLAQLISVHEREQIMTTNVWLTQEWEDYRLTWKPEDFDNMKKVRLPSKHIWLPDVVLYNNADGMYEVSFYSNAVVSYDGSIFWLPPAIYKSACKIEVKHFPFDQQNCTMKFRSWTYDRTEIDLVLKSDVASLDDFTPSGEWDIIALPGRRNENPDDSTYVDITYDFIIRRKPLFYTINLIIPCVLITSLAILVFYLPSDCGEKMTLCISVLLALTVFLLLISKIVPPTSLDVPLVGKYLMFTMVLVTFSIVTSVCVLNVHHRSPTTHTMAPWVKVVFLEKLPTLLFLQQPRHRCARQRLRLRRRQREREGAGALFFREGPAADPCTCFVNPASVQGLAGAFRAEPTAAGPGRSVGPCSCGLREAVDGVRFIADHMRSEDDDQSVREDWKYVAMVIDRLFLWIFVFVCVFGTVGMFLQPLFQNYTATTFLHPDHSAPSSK
T3 sequence (P09483 31-630): as the sequence (P09483 31-630) above
T3 sequence (P12392 21-495): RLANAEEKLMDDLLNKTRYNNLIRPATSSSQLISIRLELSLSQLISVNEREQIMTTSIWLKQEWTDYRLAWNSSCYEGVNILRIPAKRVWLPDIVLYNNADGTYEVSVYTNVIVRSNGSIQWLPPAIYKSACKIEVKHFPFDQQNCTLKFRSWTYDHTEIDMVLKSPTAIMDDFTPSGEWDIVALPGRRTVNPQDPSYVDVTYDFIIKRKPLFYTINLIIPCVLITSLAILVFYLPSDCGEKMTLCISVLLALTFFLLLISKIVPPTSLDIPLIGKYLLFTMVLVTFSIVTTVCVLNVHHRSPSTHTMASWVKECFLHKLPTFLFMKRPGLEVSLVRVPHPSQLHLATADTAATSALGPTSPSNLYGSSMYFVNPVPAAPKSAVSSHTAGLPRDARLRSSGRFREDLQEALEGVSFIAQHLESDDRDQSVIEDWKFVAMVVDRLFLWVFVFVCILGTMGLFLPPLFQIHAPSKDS
T2 sequence (P09483 31-630, stated change not applied): as the sequence (P09483 31-630) above
T2 sequence (P12390 25-500 V277F): as the sequence (P12390 25-500) above, with V253F counted along it
T4 sequence (P04757 26-499): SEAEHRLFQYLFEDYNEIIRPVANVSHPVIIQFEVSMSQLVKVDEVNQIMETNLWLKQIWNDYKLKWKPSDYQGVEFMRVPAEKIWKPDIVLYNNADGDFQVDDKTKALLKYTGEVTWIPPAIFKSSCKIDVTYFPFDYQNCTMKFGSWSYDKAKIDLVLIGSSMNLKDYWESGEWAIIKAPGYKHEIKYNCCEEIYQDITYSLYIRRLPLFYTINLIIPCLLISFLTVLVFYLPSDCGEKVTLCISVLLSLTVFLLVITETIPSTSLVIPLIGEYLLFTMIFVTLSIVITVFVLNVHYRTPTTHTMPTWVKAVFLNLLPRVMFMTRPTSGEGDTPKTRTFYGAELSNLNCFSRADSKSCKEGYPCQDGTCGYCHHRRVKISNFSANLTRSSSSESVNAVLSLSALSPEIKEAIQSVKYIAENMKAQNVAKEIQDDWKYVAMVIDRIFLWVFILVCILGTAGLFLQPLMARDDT
T4 sequence (P12392 21-495): as the sequence (P12392 21-495) above
Chain of α3β2 nAChR (P04757 26-499): as the sequence (P04757 26-499) above
Chain of α3β2 nAChR (P12390 25-500): as the sequence (P12390 25-500) above
T5 sequence (P04757 26-499): as the sequence (P04757 26-499) above
T5 sequence (P12392 21-495 F275V): as the sequence (P12392 21-495) above, with F255V counted along it
T7 sequence (P04756 21-457): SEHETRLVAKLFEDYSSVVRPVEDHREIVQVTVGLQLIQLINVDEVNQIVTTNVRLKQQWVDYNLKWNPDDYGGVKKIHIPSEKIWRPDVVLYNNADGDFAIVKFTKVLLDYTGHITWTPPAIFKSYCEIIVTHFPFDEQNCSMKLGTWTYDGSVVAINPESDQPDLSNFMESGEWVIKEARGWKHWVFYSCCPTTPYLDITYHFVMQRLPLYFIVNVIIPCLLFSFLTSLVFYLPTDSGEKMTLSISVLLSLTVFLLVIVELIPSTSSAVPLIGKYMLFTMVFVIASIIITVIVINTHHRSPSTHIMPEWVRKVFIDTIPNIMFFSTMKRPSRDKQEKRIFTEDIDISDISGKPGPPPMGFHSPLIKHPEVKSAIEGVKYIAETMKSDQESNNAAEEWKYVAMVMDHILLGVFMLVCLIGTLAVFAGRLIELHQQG
T7 sequence (P09690 24-501): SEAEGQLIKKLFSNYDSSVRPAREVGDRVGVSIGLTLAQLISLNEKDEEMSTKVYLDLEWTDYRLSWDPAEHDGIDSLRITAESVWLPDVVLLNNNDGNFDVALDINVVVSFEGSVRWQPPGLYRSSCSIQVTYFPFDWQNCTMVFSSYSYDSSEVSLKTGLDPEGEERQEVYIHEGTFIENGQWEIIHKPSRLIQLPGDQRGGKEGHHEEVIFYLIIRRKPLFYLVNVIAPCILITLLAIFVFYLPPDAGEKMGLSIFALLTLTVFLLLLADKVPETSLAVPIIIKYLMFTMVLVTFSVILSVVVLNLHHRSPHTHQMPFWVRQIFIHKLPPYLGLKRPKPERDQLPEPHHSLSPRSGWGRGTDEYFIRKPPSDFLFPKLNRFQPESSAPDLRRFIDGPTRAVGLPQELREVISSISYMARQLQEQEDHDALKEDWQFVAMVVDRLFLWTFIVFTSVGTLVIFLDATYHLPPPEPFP
T7 sequence (P04760 23-519): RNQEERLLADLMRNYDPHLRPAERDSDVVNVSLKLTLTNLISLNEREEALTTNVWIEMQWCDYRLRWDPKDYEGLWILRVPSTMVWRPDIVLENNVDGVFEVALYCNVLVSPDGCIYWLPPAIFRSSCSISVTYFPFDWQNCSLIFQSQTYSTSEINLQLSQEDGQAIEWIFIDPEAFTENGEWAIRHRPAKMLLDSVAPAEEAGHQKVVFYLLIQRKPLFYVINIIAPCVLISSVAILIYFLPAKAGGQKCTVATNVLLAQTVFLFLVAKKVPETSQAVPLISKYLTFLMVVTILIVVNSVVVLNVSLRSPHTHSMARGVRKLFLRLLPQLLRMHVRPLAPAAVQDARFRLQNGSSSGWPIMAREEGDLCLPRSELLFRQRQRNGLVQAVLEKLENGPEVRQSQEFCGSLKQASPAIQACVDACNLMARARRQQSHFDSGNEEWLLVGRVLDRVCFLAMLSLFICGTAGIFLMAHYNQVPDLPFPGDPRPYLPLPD
T7 sequence (P02716 25-520): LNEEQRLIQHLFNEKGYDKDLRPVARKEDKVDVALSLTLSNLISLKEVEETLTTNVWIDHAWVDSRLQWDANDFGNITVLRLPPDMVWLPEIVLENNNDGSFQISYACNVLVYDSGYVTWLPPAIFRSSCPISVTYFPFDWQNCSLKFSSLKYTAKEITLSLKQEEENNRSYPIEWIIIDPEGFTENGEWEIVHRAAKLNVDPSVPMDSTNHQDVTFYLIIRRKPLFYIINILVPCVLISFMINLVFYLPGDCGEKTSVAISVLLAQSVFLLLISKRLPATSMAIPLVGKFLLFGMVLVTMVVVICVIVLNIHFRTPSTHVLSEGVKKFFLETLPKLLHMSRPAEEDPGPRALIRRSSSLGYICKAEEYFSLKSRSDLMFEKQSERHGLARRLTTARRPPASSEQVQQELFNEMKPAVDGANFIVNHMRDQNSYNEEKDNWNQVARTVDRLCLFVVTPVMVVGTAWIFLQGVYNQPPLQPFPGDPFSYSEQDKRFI

CCCC(=O)N[C@@H](Cc1ccc(O)cc1)C(=O)NCCCCCCCCCCCCN [PhTX-12]
IC50 (α4β2 nAChR; Late, α4β2, VH −60 mV, late current (1 min)): 0.23 µM
IC50 (α4β2 nAChR; Late, α4β2, VH −80 mV, late current (1 min)): 0.28 µM
IC50 (α4β2 nAChR; Late, α4β2, VH −100 mV, late current (1 min)): 0.044 µM
IC50 (α4β2 nAChR; Peak, α4β2, VH −60 mV, peak current): 3.87 µM
IC50 (α4β2 nAChR; Peak, α4β2, VH −80 mV, peak current): 2.17 µM
IC50 (α4β2 nAChR; Peak, α4β2, VH −100 mV, peak current): 1.64 µM
times less sensitive than the most sensitive subtype (α4β2 nAChR; α4β2 vs α3β4 (for PhTX-12: α1β1γδ along with α3β4), late current IC50, −80 mV): 3 times
reduction in late current IC50 as compared to α4β2 (α4β2(V253F) nAChR; α4β2(V253F) vs α4β2, late current, −80 mV): no significant differences
change in peak current IC50 as compared to α4β2 (α4β2(V253F) nAChR; α4β2(V253F) vs α4β2, peak current, −80 mV): no significant differences
IC50 (α4β2(V253F) nAChR; [2]): 0.41 µM
IC50 (α4β2(V253F) nAChR; [3]): 2.22 µM
IC50 (α4β2(V253F) nAChR; [4]): 0.3 µM
IC50 (α4β2(V253F) nAChR; [5]): 4.05 µM
IC50 (α4β2(V253F) nAChR; [6]): 0.19 µM
IC50 (α4β2(V253F) nAChR; [7]): 3.48 µM
IC50 (α4β4 nAChR; Late, α4β4, VH −60 mV, late current (1 min)): 0.25 µM
IC50 (α4β4 nAChR; Late, α4β4, VH −80 mV, late current (1 min)): 0.29 µM
IC50 (α4β4 nAChR; Late, α4β4, VH −100 mV, late current (1 min)): 0.19 µM
IC50 (α4β4 nAChR; Peak, α4β4, VH −60 mV, peak current): 1.21 µM
IC50 (α4β4 nAChR; Peak, α4β4, VH −80 mV, peak current): 1.65 µM
IC50 (α4β4 nAChR; Peak, α4β4, VH −100 mV, peak current): 2.77 µM
voltage dependence of inhibition, late current (α4β4 nAChR; α4β4, late current IC50 values, VH −60 to −100 mV): voltage-independent
times less sensitive than the most sensitive subtype (α4β4 nAChR; α4β4 vs α3β4 (for PhTX-12: α1β1γδ along with α3β4), late current IC50, −80 mV): 3 times
IC50 (α3β4 nAChR; IC50 (95% CI), Late, α3β4, VH −60 mV, late current (1 min), ACh 100 μM): 0.11 µM
IC50 (α3β4 nAChR; IC50 (95% CI), Late, α3β4, VH −80 mV, late current (1 min), ACh 100 μM): 0.11 µM
IC50 (α3β4 nAChR; IC50 (95% CI), Late, α3β4, VH −100 mV, late current (1 min), ACh 100 μM): 0.027 µM
IC50 (α3β4 nAChR; IC50 (95% CI), Peak, α3β4, VH −60 mV, peak current, ACh 100 μM): 3.09 µM
IC50 (α3β4 nAChR; IC50 (95% CI), Peak, α3β4, VH −80 mV, peak current, ACh 100 μM): 2.62 µM
IC50 (α3β4 nAChR; IC50 (95% CI), Peak, α3β4, VH −100 mV, peak current, ACh 100 μM): 2.03 µM
IC50 (α3β4 nAChR; IC50, α3β4, late current, −80 mV): 0.1 µM
surmountability of late current inhibition (α3β4 nAChR; α3β4, 0.3 μM toxin, late current, −80 mV): insurmountable
surmountability of peak current inhibition by higher ACh concentrations (α3β4 nAChR; α3β4, 10 μM toxin, peak current, −80 mV): surmountable
peak current during the first ACh application after removal of toxin (6 min) (α3β4 nAChR; α3β4, after 10 μM toxin, mean of all cells, −80 mV, not significantly greater than control (p = 0.217)): 119.4 % control response
increase in late current IC50 as compared to α3β4 (α3β4(F255V) nAChR; α3β4(F255V) vs α3β4, late current, −80 mV): 3.3 fold
reduction in peak current IC50 as compared to α3β4 (α3β4(F255V) nAChR; α3β4(F255V) vs α3β4, peak current, −80 mV): no difference
IC50 (α3β4(F255V) nAChR; [2]): 0.52 µM
IC50 (α3β4(F255V) nAChR; [3]): 1.63 µM
IC50 (α3β4(F255V) nAChR; [4]): 0.36 µM
IC50 (α3β4(F255V) nAChR; [5]): 2.78 µM
IC50 (α3β4(F255V) nAChR; [6]): 0.068 µM
IC50 (α3β4(F255V) nAChR; [7]): 1.05 µM
IC50 (α7 nAChR; Late, α7, VH −60 mV, based on the area under the current trace (no stable late current)): 8.32 µM
IC50 (α7 nAChR; Late, α7, VH −80 mV, based on the area under the current trace (no stable late current)): 4.9 µM and 4.92 µM
IC50 (α7 nAChR; Late, α7, VH −100 mV, based on the area under the current trace (no stable late current)): 5.02 µM
IC50 (α7 nAChR; Peak, α7, VH −60 mV, peak current): 18.7 µM
IC50 (α7 nAChR; Peak, α7, VH −80 mV, peak current): 11.1 µM
IC50 (α7 nAChR; Peak, α7, VH −100 mV, peak current): 12.1 µM
recovery of the late current after 6 min (α7 nAChR; α7, 10 μM toxin, −80 mV): complete
times less sensitive than the most sensitive subtype (α7 nAChR; α7 vs α3β4 (for PhTX-12: α1β1γδ along with α3β4), late current IC50, −80 mV): 49 times
IC50 (α1β1γδ nAChR; Late, VH −60 mV, late current (1 min)): 0.07 µM
IC50 (α1β1γδ nAChR; Late, VH −80 mV, late current (1 min)): 0.1 µM
IC50 (α1β1γδ nAChR; Late, VH −100 mV, late current (1 min)): 0.071 µM
IC50 (α1β1γδ nAChR; Peak, VH −60 mV, peak current): 3.16 µM
IC50 (α1β1γδ nAChR; Peak, VH −80 mV, peak current): 6.18 µM
IC50 (α1β1γδ nAChR; Peak, VH −100 mV, peak current): 5.02 µM
surmountability of late current inhibition (α1β1γδ nAChR; 0.3 μM toxin, late current, −80 mV): insurmountable
surmountability of peak current inhibition by increasing ACh concentrations (α1β1γδ nAChR; 10 μM toxin, peak current, −80 mV): surmountable
voltage dependence of inhibition, late current (α1β1γδ nAChR; late current IC50 values, VH −60 to −100 mV): voltage-independent
lower potency at human muscle-type nAChRs in TE671 cells than in the present study [1]: 11 fold
effect on membrane current when applied alone (nAChRs; 100 μM applied alone, VH = −80 mV, oocytes expressing nAChRs): did not produce any effect on membrane current
voltage dependence of inhibition of peak current (nAChRs; all nAChRs, peak current, VH −60 to −100 mV): voltage-independent for all nAChRs except for homomeric α7
reversibility of inhibition of nAChRs (nAChRs; all subunit combinations, 10 μM toxin, −80 mV): fully or almost reversible after 6 min
IC50 (α3β2 nAChR; Late, α3β2, VH −60 mV, late current (1 min)): 3.2 µM
IC50 (α3β2 nAChR; Late, α3β2, VH −80 mV, late current (1 min)): 2.57 µM
IC50 (α3β2 nAChR; Late, α3β2, VH −100 mV, late current (1 min)): 1.38 µM
IC50 (α3β2 nAChR; Peak, α3β2, VH −60 mV, peak current): 65.2 µM
IC50 (α3β2 nAChR; Peak, α3β2, VH −80 mV, peak current): 60 µM and 60.6 µM
IC50 (α3β2 nAChR; Peak, α3β2, VH −100 mV, peak current): 74.4 µM
recovery of the late current after 6 min (α3β2 nAChR; α3β2, 10 μM toxin, −80 mV): complete
recovery of the peak current after 6 min (α3β2 nAChR; α3β2, 10 μM toxin, −80 mV): complete
times less sensitive than the most sensitive subtype (α3β2 nAChR; α3β2 vs α3β4 (for PhTX-12: α1β1γδ along with α3β4), late current IC50, −80 mV): 26 times
